Experimental data as given in patent publication US8247211B2, “Glycopeptide antibiotics” (American Cyanamid Company, priority 2001, dated 2012).
Converted amounts (≈) assume the structure as drawn. Each block holds one compound with its values, some of them ahead of it.

Columns and labels:
Assay in all cases: In vitro antibacterial evaluation: minimum inhibitory concentration (MIC), broth dilution method
Type in all cases: cell-based
Details in all cases: 18 hours at 35° C.
Enterococcus sp. = system: Enterococcus sp.
Summary of the method: (§1)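 An MIC is reported for each organism as the least concentration giving inhibition, using broth dilution over 64-0.06 μg/mL with a 5×10^5 CFU/mL inoculum.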

Escherichia coli = system: Escherichia coli
Summary of the method: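 MIC read as lowest drug level preventing visible growth. Organisms at 5×10^5 CFU/mL were exposed to a 64-0.06 μg/mL dilution series in Muller-Hinton II […] following NCCLS broth dilution standard M7-A2.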

Staphylococcus sp. = system: Staphylococcus sp.
Summary of the method: as §1

Streptococcus sp. = system: Streptococcus sp.
Summary of the method: as §1

[1] = Enterococcus faecalis (GC 2242)
[2] = Enterococcus faecalis (GC 2691)
[3] = Enterococcus faecalis (GC 3059)
[4] = broth dilution, inoculum 5×10^5 CFU/mL
[5] = Streptococcus agalactiae (GC 4564)
[6] = Streptococcus pneumoniae (ATCC 6301)
[7] = Streptococcus pneumoniae (GC 1894)
[8] = Streptococcus pneumoniae (GC 4565)
[9] = Streptococcus pyogenes (GC 4563)

MIC Enterococcus avium (GC 4558) (Enterococcus sp.): 8 µg/mL (≈ 5.48 µM)
MIC Enterococcus faecalis (ATCC 29212) (Enterococcus sp.): 16 µg/mL (≈ 11 µM)
MIC Enterococcus faecalis (GC 2242) (Enterococcus sp.; [1]): 16 µg/mL (≈ 11 µM)
MIC Enterococcus faecalis (GC 2691) (Enterococcus sp.; [2]): 32 µg/mL (≈ 21.9 µM)
MIC Enterococcus faecalis (GC 3059) (Enterococcus sp.; [3]): 32 µg/mL (≈ 21.9 µM)
MIC Enterococcus faecalis (GC 4552) (Enterococcus sp.): 16 µg/mL (≈ 11 µM)
MIC Enterococcus faecalis (GC 4553) (Enterococcus sp.): 8 µg/mL (≈ 5.48 µM)
MIC Enterococcus faecalis (GC 4554) (Enterococcus sp.): 32 µg/mL (≈ 21.9 µM)
MIC Enterococcus faecalis (GC 6189) (Enterococcus sp.): 16 µg/mL (≈ 11 µM)
MIC Enterococcus faecium (GC 2243) (Enterococcus sp.): 16 µg/mL (≈ 11 µM)
MIC Enterococcus faecium (GC 4556) (Enterococcus sp.): 16 µg/mL (≈ 11 µM)
MIC Enterococcus faecium (GC 4557) (Enterococcus sp.): 4 µg/mL (≈ 2.74 µM)
MIC Enterococcus faecalis (GC 2242) (Enterococcus sp.; [4]): 16 µg/mL (≈ 11 µM)
MIC Enterococcus faecalis (GC 2691) (Enterococcus sp.; [4]): 32 µg/mL (≈ 21.9 µM)
MIC Enterococcus faecalis (GC 3059) (Enterococcus sp.; [4]): 32 µg/mL (≈ 21.9 µM)
MIC Escherichia coli (GC 4559) (Escherichia coli): 64 µg/mL (≈ 43.8 µM)
MIC Escherichia coli (GC 4560) (Escherichia coli): 4 µg/mL (≈ 2.74 µM)
MIC Coagulase Negative Staphylococcus (GC 4547) (Staphylococcus sp.): 4 µg/mL (≈ 2.74 µM)
MIC Coagulase Negative Staphylococcus (GC 4548) (Staphylococcus sp.): 4 µg/mL (≈ 2.74 µM)
MIC Coagulase Negative Staphylococcus (GC 4549) (Staphylococcus sp.): 4 µg/mL (≈ 2.74 µM)
MIC Coagulase Negative Staphylococcus (GC 4551) (Staphylococcus sp.): 8 µg/mL (≈ 5.48 µM)
MIC Coagulase Negative Staphylococcus (GC 6257) (Staphylococcus sp.): 2 µg/mL (≈ 1.37 µM)
MIC Staphylococcus aureus (ATCC 29213) (Staphylococcus sp.): 4 µg/mL (≈ 2.74 µM)
MIC Staphylococcus aureus (GC 1131) (Staphylococcus sp.): 8 µg/mL (≈ 5.48 µM)
MIC Staphylococcus aureus (GC 3051) (Staphylococcus sp.): 4 µg/mL (≈ 2.74 µM)
MIC Staphylococcus aureus (GC 3053) (Staphylococcus sp.): 4 µg/mL (≈ 2.74 µM)
MIC Staphylococcus aureus (GC 4541) (Staphylococcus sp.): 4 µg/mL (≈ 2.74 µM)
MIC Staphylococcus aureus (GC 4542) (Staphylococcus sp.): 4 µg/mL (≈ 2.74 µM)
MIC Staphylococcus aureus (GC 4544) (Staphylococcus sp.): 8 µg/mL (≈ 5.48 µM)
MIC Staphylococcus aureus (GC 4545) (Staphylococcus sp.): 4 µg/mL (≈ 2.74 µM)
MIC Staphylococcus aureus-SMITH (GC 4543) (Staphylococcus sp.): 4 µg/mL (≈ 2.74 µM)
MIC Streptococcus agalactiae (GC 4564) (Streptococcus sp.; [5]): 2 µg/mL (≈ 1.37 µM)
MIC Streptococcus pneumoniae (ATCC 6301) (Streptococcus sp.; [6]): 2 µg/mL (≈ 1.37 µM)
MIC Streptococcus pneumoniae (GC 1894) (Streptococcus sp.; [7]): 0.5 µg/mL (≈ 0.343 µM)
MIC Streptococcus pneumoniae (GC 4565) (Streptococcus sp.; [8]): 2 µg/mL (≈ 1.37 µM)
MIC Streptococcus pyogenes (GC 4563) (Streptococcus sp.; [9]): 4 µg/mL (≈ 2.74 µM)
MIC Streptococcus agalactiae (GC 4564) (Streptococcus sp.; [4]): 2 µg/mL (≈ 1.37 µM)
MIC Streptococcus pneumoniae (ATCC 6301) (Streptococcus sp.; [4]): 2 µg/mL (≈ 1.37 µM)
MIC Streptococcus pneumoniae (GC 1894) (Streptococcus sp.; [4]): 0.5 µg/mL (≈ 0.343 µM)
MIC Streptococcus pneumoniae (GC 4565) (Streptococcus sp.; [4]): 2 µg/mL (≈ 1.37 µM)
MIC Streptococcus pyogenes (GC 4563) (Streptococcus sp.; [4]): 4 µg/mL (≈ 2.74 µM)
Structure (SMILES): CC(c1ccccc1)C1NC(=O)CNC(=O)C(CO)NC(=O)C(CC2CNC(=N)N2C2OC(CO)C(O)C(O)C2O)NC(=O)C(CC2CNC(=N)N2)NC(=O)C(Cc2ccc(OC3OC(CO)C(OC4OC(COCc5ccc(OCc6ccccc6)cc5)C(O)C(O)C4O)C(O)C3O)cc2)NC1=O (stereo not drawn) [Example 246, Cyclo[3-(2-iminoimidazolidin-4-yl)alanyl-3-(3-hexopyranosyl-2-iminoimidazolidin-4-yl)-alanylserylglycyl-β-methylphenylalanyl-O-[4-O-[6-O-[4-(phenylmethoxy)benzyl]hexopyranosyl]hexopyranosyl]tyrosyl]]
MIC Staphylococcus haemolyticus (GC 4546) (Staphylococcus sp.): 4 µg/mL (≈ 2.74 µM)

MIC Enterococcus avium (GC 4558) (Enterococcus sp.): 2 µg/mL (≈ 1.37 µM)
MIC Enterococcus faecalis (ATCC 29212) (Enterococcus sp.): 4 µg/mL (≈ 2.74 µM)
MIC Enterococcus faecalis (GC 2242) (Enterococcus sp.; [1]): 4 µg/mL (≈ 2.74 µM)
MIC Enterococcus faecalis (GC 2691) (Enterococcus sp.; [2]): 8 µg/mL (≈ 5.48 µM)
MIC Enterococcus faecalis (GC 3059) (Enterococcus sp.; [3]): 4 µg/mL (≈ 2.74 µM)
MIC Enterococcus faecalis (GC 4552) (Enterococcus sp.): 4 µg/mL (≈ 2.74 µM)
MIC Enterococcus faecalis (GC 4553) (Enterococcus sp.): 2 µg/mL (≈ 1.37 µM)
MIC Enterococcus faecalis (GC 4554) (Enterococcus sp.): 4 µg/mL (≈ 2.74 µM)
MIC Enterococcus faecalis (GC 6189) (Enterococcus sp.): 4 µg/mL (≈ 2.74 µM)
MIC Enterococcus faecium (GC 2243) (Enterococcus sp.): 4 µg/mL (≈ 2.74 µM)
MIC Enterococcus faecium (GC 4556) (Enterococcus sp.): 4 µg/mL (≈ 2.74 µM)
MIC Enterococcus faecium (GC 4557) (Enterococcus sp.): 2 µg/mL (≈ 1.37 µM)
MIC Enterococcus faecalis (GC 2242) (Enterococcus sp.; [4]): 4 µg/mL (≈ 2.74 µM)
MIC Enterococcus faecalis (GC 2691) (Enterococcus sp.; [4]): 8 µg/mL (≈ 5.48 µM)
MIC Enterococcus faecalis (GC 3059) (Enterococcus sp.; [4]): 4 µg/mL (≈ 2.74 µM)
MIC Escherichia coli (ATCC 25922) (Escherichia coli; Escherichia coli (ATCC 25922)): 16 µg/mL (≈ 11 µM)
MIC Escherichia coli (GC 4559) (Escherichia coli): 16 µg/mL (≈ 11 µM)
MIC Escherichia coli (GC 4560) (Escherichia coli): 2 µg/mL (≈ 1.37 µM)
MIC Coagulase Negative Staphylococcus (GC 4547) (Staphylococcus sp.): 1 µg/mL (≈ 0.685 µM)
MIC Coagulase Negative Staphylococcus (GC 4548) (Staphylococcus sp.): 1 µg/mL (≈ 0.685 µM)
MIC Coagulase Negative Staphylococcus (GC 4549) (Staphylococcus sp.): 1 µg/mL (≈ 0.685 µM)
MIC Coagulase Negative Staphylococcus (GC 4551) (Staphylococcus sp.): 2 µg/mL (≈ 1.37 µM)
MIC Coagulase Negative Staphylococcus (GC 6257) (Staphylococcus sp.): 2 µg/mL (≈ 1.37 µM)
MIC Staphylococcus aureus (ATCC 29213) (Staphylococcus sp.): 2 µg/mL (≈ 1.37 µM)
MIC Staphylococcus aureus (GC 1131) (Staphylococcus sp.): 4 µg/mL (≈ 2.74 µM)
MIC Staphylococcus aureus (GC 3051) (Staphylococcus sp.): 1 µg/mL (≈ 0.685 µM)
MIC Staphylococcus aureus (GC 3053) (Staphylococcus sp.): 2 µg/mL (≈ 1.37 µM)
MIC Staphylococcus aureus (GC 4541) (Staphylococcus sp.): 1 µg/mL (≈ 0.685 µM)
MIC Staphylococcus aureus (GC 4542) (Staphylococcus sp.): 1 µg/mL (≈ 0.685 µM)
MIC Staphylococcus aureus (GC 4544) (Staphylococcus sp.): 2 µg/mL (≈ 1.37 µM)
MIC Staphylococcus aureus (GC 4545) (Staphylococcus sp.): 2 µg/mL (≈ 1.37 µM)
MIC Staphylococcus aureus-SMITH (GC 4543) (Staphylococcus sp.): 1 µg/mL (≈ 0.685 µM)
MIC Streptococcus agalactiae (GC 4564) (Streptococcus sp.; [5]): 0.5 µg/mL (≈ 0.343 µM)
MIC Streptococcus pneumoniae (ATCC 6301) (Streptococcus sp.; [6]): 0.25 µg/mL (≈ 0.171 µM)
MIC Streptococcus pneumoniae (GC 1894) (Streptococcus sp.; [7]): <0.12 µg/mL
MIC Streptococcus pneumoniae (GC 4565) (Streptococcus sp.; [8]): 0.25 µg/mL (≈ 0.171 µM)
MIC Streptococcus pyogenes (GC 4563) (Streptococcus sp.; [9]): 0.5 µg/mL (≈ 0.343 µM)
MIC Streptococcus agalactiae (GC 4564) (Streptococcus sp.; [4]): 0.5 µg/mL (≈ 0.343 µM)
MIC Streptococcus pneumoniae (ATCC 6301) (Streptococcus sp.; [4]): 0.25 µg/mL (≈ 0.171 µM)
MIC Streptococcus pneumoniae (GC 1894) (Streptococcus sp.; [4]): <0.12 µg/mL
MIC Streptococcus pneumoniae (GC 4565) (Streptococcus sp.; [4]): 0.25 µg/mL (≈ 0.171 µM)
MIC Streptococcus pyogenes (GC 4563) (Streptococcus sp.; [4]): 0.5 µg/mL (≈ 0.343 µM)
Structure (SMILES): CC(c1ccccc1)C1NC(=O)CNC(=O)C(CO)NC(=O)C(CC2CNC(=N)N2C2OC(CO)C(O)C(O)C2O)NC(=O)C(CC2CNC(=N)N2)NC(=O)C(Cc2ccc(OC3OC(CO)C(OC4OC(CO)C(OCc5ccc(OCc6ccccc6)cc5)C(O)C4O)C(O)C3O)cc2)NC1=O (centres unmarked) [Example 246a]
MIC Staphylococcus haemolyticus (GC 4546) (Staphylococcus sp.): 1 µg/mL (≈ 0.685 µM)

MIC Enterococcus avium (GC 4558) (Enterococcus sp.): 64 µg/mL (≈ 43.8 µM)
MIC Enterococcus faecium (GC 4557) (Enterococcus sp.): 32 µg/mL (≈ 21.9 µM)
MIC Escherichia coli (GC 4560) (Escherichia coli): 32 µg/mL (≈ 21.9 µM)
MIC Coagulase Negative Staphylococcus (GC 4547) (Staphylococcus sp.): 64 µg/mL (≈ 43.8 µM)
MIC Coagulase Negative Staphylococcus (GC 4548) (Staphylococcus sp.): 64 µg/mL (≈ 43.8 µM)
MIC Coagulase Negative Staphylococcus (GC 4549) (Staphylococcus sp.): 32 µg/mL (≈ 21.9 µM)
MIC Coagulase Negative Staphylococcus (GC 4551) (Staphylococcus sp.): 64 µg/mL (≈ 43.8 µM)
MIC Coagulase Negative Staphylococcus (GC 6257) (Staphylococcus sp.): 64 µg/mL (≈ 43.8 µM)
MIC Staphylococcus aureus (ATCC 29213) (Staphylococcus sp.): 64 µg/mL (≈ 43.8 µM)
MIC Staphylococcus aureus (GC 3051) (Staphylococcus sp.): 64 µg/mL (≈ 43.8 µM)
MIC Staphylococcus aureus (GC 4541) (Staphylococcus sp.): 64 µg/mL (≈ 43.8 µM)
MIC Staphylococcus aureus (GC 4542) (Staphylococcus sp.): 64 µg/mL (≈ 43.8 µM)
MIC Staphylococcus aureus (GC 4544) (Staphylococcus sp.): 64 µg/mL (≈ 43.8 µM)
MIC Staphylococcus aureus (GC 4545) (Staphylococcus sp.): 64 µg/mL (≈ 43.8 µM)
MIC Staphylococcus aureus-SMITH (GC 4543) (Staphylococcus sp.): >64 µg/mL
MIC Streptococcus agalactiae (GC 4564) (Streptococcus sp.; [5]): 64 µg/mL (≈ 43.8 µM)
MIC Streptococcus pneumoniae (ATCC 6301) (Streptococcus sp.; [6]): 32 µg/mL (≈ 21.9 µM)
MIC Streptococcus pneumoniae (GC 1894) (Streptococcus sp.; [7]): 32 µg/mL (≈ 21.9 µM)
MIC Streptococcus pneumoniae (GC 4565) (Streptococcus sp.; [8]): 64 µg/mL (≈ 43.8 µM)
MIC Streptococcus pyogenes (GC 4563) (Streptococcus sp.; [9]): 64 µg/mL (≈ 43.8 µM)
MIC Streptococcus agalactiae (GC 4564) (Streptococcus sp.; [4]): 64 µg/mL (≈ 43.8 µM)
MIC Streptococcus pneumoniae (ATCC 6301) (Streptococcus sp.; [4]): 32 µg/mL (≈ 21.9 µM)
MIC Streptococcus pneumoniae (GC 1894) (Streptococcus sp.; [4]): 32 µg/mL (≈ 21.9 µM)
MIC Streptococcus pneumoniae (GC 4565) (Streptococcus sp.; [4]): 64 µg/mL (≈ 43.8 µM)
MIC Streptococcus pyogenes (GC 4563) (Streptococcus sp.; [4]): 64 µg/mL (≈ 43.8 µM)
Structure (SMILES): CC(c1ccccc1)C1NC(=O)CNC(=O)C(CO)NC(=O)C(CC2CNC(=N)N2C2OC(CO)C(O)C(O)C2O)NC(=O)C(CC2CNC(=N)N2)NC(=O)C(Cc2ccc(OC3OC(CO)C(OC4OC(CO)C(O)C(OCc5ccc(OCc6ccccc6)cc5)C4O)C(O)C3O)cc2)NC1=O (centres unmarked) [Example 246b]
